Measured values published in US20210382058A1, “PATIENT SELECTION FOR TREATMENT OF MYC POSITIVE CANCERS WITH INDENOISOQUINOLINES” (Purdue Research Foundation, priority 2020, published 2021).
Where two headings read alike, the source gives them in different places.

How the values were obtained:
[1] = biological target: T1, human topoisomerase I (Homo sapiens, UniProt P11387); settings: relative topoisomerase I inhibition levels, previously determined, six levels (0 - 5, +++++ = 5); cited from earlier work
T1 sequence (P11387 1-765): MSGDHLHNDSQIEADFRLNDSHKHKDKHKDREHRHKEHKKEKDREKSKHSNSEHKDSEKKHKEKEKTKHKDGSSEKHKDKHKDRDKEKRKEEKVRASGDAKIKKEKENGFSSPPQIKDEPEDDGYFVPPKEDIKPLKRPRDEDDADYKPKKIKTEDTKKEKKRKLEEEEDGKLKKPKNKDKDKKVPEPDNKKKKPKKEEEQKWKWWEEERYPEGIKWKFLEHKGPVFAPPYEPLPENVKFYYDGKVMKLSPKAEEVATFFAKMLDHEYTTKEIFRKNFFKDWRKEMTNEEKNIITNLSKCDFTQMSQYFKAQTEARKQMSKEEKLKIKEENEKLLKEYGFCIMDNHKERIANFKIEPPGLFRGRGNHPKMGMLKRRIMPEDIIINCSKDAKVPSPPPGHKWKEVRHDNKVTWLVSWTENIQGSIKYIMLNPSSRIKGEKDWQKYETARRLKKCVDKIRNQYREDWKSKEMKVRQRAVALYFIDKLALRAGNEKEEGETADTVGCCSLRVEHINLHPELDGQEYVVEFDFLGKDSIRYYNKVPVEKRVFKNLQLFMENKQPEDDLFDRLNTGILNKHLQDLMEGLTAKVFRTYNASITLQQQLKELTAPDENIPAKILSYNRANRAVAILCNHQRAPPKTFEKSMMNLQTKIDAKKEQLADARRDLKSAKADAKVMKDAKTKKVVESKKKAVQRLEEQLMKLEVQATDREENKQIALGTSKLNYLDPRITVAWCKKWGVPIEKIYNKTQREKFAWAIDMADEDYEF

[2] = test system: NCI-60 cancer cell lines; assay: NCI-60 cancer cell line drug screen (GI50, MGM); type: cell-based, human; settings: Homo sapiens; for GI50: read-out: Antiproliferative Activities [GI50 (μM)]; for mean GI50 across NCI-60 panel (MGM): average of GI50 values across the entire panel of NCI-60 cancer cell lines
Procedure: Cancer cells were incubated with the test compounds at five concentrations ranging from 100 μM to 10 nM for 48 h. […] The approximate average of GI50 values across the entire panel of NCI-60 cancer cell lines for each compound was recorded as the MGM value.

[3] = A549, Non-Small Cell Lung Cancer, A549/ATCC
[4] = COLO 205, Colon Cancer, COLO 205
[5] = DU-145, Prostate Cancer, DU-145
[6] = HCC 2998, Colon Cancer, HCC-2998
[7] = HOP-92, Non-Small Cell Lung Cancer, HOP-92
[8] = Hs-578T, Breast Cancer, HS 578T
[9] = IGROV-1, Ovarian Cancer, IGROV1
[10] = MDA-MB-231, Breast Cancer, MDA-MB-231/ATCC
[11] = MDA-MB-435, Melanoma, MDA-MB-435
[12] = MDA-MB-468, Breast Cancer, MDA-MB-468
[13] = NCI-H23, Non-Small Cell Lung Cancer, NCI-H23
[14] = NCI-H226, Non-Small Cell Lung Cancer, NCI-H226
[15] = NCI-H322M, Non-Small Cell Lung Cancer, NCI-H322M
[16] = NCI-H460, Non-Small Cell Lung Cancer, NCI-H460
[17] = NCI-H522, Non-Small Cell Lung Cancer, NCI-H522
[18] = OVCAR-3, Ovarian Cancer, OVCAR-3
[19] = OVCAR-4, Ovarian Cancer, OVCAR-4
[20] = OVCAR-5, Ovarian Cancer, OVCAR-5
[21] = OVCAR-8, Ovarian Cancer, OVCAR-8
[22] = SK-OV-3, Ovarian Cancer, SK-OV-3

COc1cnc2c(c1)C(=O)c1c-2n(CCCNCCN2CCOCC2)c(=O)c2cc([N+](=O)[O-])ccc12 [Compound 11]
Top1 Inhibiton [1]: +++ (strong inhibition, +++, MYC expression inhibited at 0.5 to 1.0 μM)
GI50 ([2]; 786-0, Renal Cancer, 786-0): 0.22 µM
GI50 [2, 3]: 0.12 µM
GI50 ([2]; ACHN, Renal Cancer, ACHN): 0.04 µM
GI50 ([2]; BT-549, Breast Cancer, BT-549): 0.29 µM
GI50 ([2]; CAKI-1, Renal Cancer, CAKI-1): 0.04 µM
GI50 ([2]; CCRF-CEM, Leukemia, CCRF-CEM): 0.05 µM
GI50 [2, 4]: 0.3 µM
GI50 [2, 5]: 0.06 µM
GI50 ([2]; EKVX, Non-Small Cell Lung Cancer, EKVX): 0.45 µM
GI50 [2, 6]: 0.3 µM
GI50 ([2]; HCT-15, Colon Cancer, HCT-15): 0.3 µM
GI50 ([2]; HL-60, Leukemia, HL-60(TB)): 0.1 µM
GI50 [2, 7]: 0.87 µM
GI50 ([2]; HT-29, Colon Cancer, HT29): 0.15 µM
GI50 [2, 8]: 3.85 µM
GI50 [2, 9]: 0.42 µM
GI50 ([2]; K562, Leukemia, K-562): 0.23 µM
GI50 ([2]; KM12, Colon Cancer, KM12): 0.4 µM
GI50 ([2]; LOX IMVI, Melanoma, LOX IMVI): 0.04 µM
GI50 ([2]; Leukemia, SR): 0.02 µM
GI50 ([2]; MCF7, Breast Cancer, MCF7): 0.03 µM
GI50 [2, 10]: 0.63 µM
GI50 [2, 11]: 0.42 µM
GI50 [2, 12]: 0.12 µM
GI50 ([2]; MOLT-4, Leukemia, MOLT-4): 0.03 µM
GI50 ([2]; Malme-3M, Melanoma, MALME-3M): 0.34 µM
GI50 ([2]; Melanoma, M14): 0.07 µM
GI50 [2, 13]: 0.15 µM
GI50 [2, 14]: 0.17 µM
GI50 [2, 15]: 0.28 µM
GI50 [2, 16]: 0.04 µM
GI50 [2, 17]: 0.08 µM
GI50 [2, 18]: 0.32 µM
GI50 [2, 19]: 0.33 µM
GI50 [2, 20]: 0.45 µM
GI50 [2, 21]: 0.17 µM
GI50 ([2]; Ovarian Cancer, NCl/ADR-RES): 0.13 µM
GI50 ([2]; Prostate Cancer, PC-3): 0.57 µM
GI50 ([2]; RPMI-8226, Leukemia, RPMI-8226): 0.17 µM
GI50 ([2]; RXF 393, Renal Cancer, RXF 393): 0.39 µM
GI50 ([2]; Renal Cancer, U0-31): 0.05 µM
GI50 ([2]; SF-268, CNS Cancer, SF-268): 0.08 µM
GI50 ([2]; SF-295, CNS Cancer, SF-295): 0.07 µM
GI50 ([2]; SF-539, CNS Cancer, SF-539): 0.31 µM
GI50 ([2]; SK-MEL-2, Melanoma, SK-MEL-2): 1.59 µM
GI50 ([2]; SK-MEL-5, Melanoma, SK-MEL-5): 0.26 µM
GI50 ([2]; SK-MEL-28, Melanoma, SK-MEL-28): 1.13 µM
GI50 [2, 22]: 0.14 µM
GI50 ([2]; SNB-19, CNS Cancer, SNB-19): 0.11 µM
GI50 ([2]; SNB-75, CNS Cancer, SNB-75): 0.27 µM
GI50 ([2]; SW-620, Colon Cancer, SW-620): 0.13 µM
GI50 ([2]; T47D, Breast Cancer, T-47D): 0.11 µM
GI50 ([2]; TK-10, Renal Cancer, TK-10): 0.73 µM
GI50 ([2]; U-251, CNS Cancer, U251): 0.08 µM
GI50 ([2]; UACC-62, Melanoma, UACC-62): 0.04 µM
GI50 ([2]; UACC-257, Melanoma, UACC-257): 0.59 µM
mean GI50 across NCI-60 panel (MGM) [2]: 177 nM

COc1cc2c(cc1O)-c1c(c3ccc([N+](=O)[O-])cc3c(=O)n1CCCN1CCOCC1)C2=O [Compound 36]
Top1 Inhibiton [1]: ++ (medium inhibition, ++, MYC expression inhibited at 2.0 μM, or no clear dose-dependent MYC inhibition)
GI50 ([2]; 786-0, Renal Cancer, 786-0): 0.21 µM
GI50 ([2]; A498, Renal Cancer, A498): 0.07 µM
GI50 [2, 3]: 0.52 µM
GI50 ([2]; ACHN, Renal Cancer, ACHN): 0.05 µM
GI50 ([2]; BT-549, Breast Cancer, BT-549): 0.12 µM
GI50 ([2]; CAKI-1, Renal Cancer, CAKI-1): 0.12 µM
GI50 ([2]; CCRF-CEM, Leukemia, CCRF-CEM): 0.05 µM
GI50 [2, 4]: 7.76 µM
GI50 [2, 5]: 0.14 µM
GI50 [2, 6]: 1.42 µM
GI50 ([2]; HCT-15, Colon Cancer, HCT-15): 1.53 µM
GI50 ([2]; HCT-116, Colon Cancer, HCT-116): 0.22 µM
GI50 ([2]; HL-60, Leukemia, HL-60(TB)): 0.08 µM
GI50 ([2]; HOP-62, Non-Small Cell Lung Cancer, HOP-62): 0.12 µM
GI50 [2, 7]: 0.28 µM
GI50 ([2]; HT-29, Colon Cancer, HT29): 1.18 µM
GI50 [2, 8]: 1.97 µM
GI50 [2, 9]: 1.52 µM
GI50 ([2]; K562, Leukemia, K-562): 0.09 µM
GI50 ([2]; KM12, Colon Cancer, KM12): 1.04 µM
GI50 ([2]; LOX IMVI, Melanoma, LOX IMVI): 0.09 µM
GI50 ([2]; Leukemia, SR): 0.03 µM
GI50 ([2]; MCF7, Breast Cancer, MCF7): 0.05 µM
GI50 [2, 10]: 2.06 µM
GI50 [2, 11]: 0.89 µM
GI50 [2, 12]: 0.14 µM
GI50 ([2]; MOLT-4, Leukemia, MOLT-4): 0.03 µM
GI50 ([2]; Malme-3M, Melanoma, MALME-3M): 1.16 µM
GI50 ([2]; Melanoma, M14): 0.08 µM
GI50 [2, 13]: 0.17 µM
GI50 [2, 14]: 0.45 µM
GI50 [2, 15]: 0.66 µM
GI50 [2, 16]: 0.03 µM
GI50 [2, 17]: 0.05 µM
GI50 [2, 18]: 0.57 µM
GI50 [2, 19]: 1.29 µM
GI50 [2, 20]: 3.6 µM
GI50 [2, 21]: 0.45 µM
GI50 ([2]; Ovarian Cancer, NCl/ADR-RES): 0.28 µM
GI50 ([2]; Prostate Cancer, PC-3): 0.67 µM
GI50 ([2]; RPMI-8226, Leukemia, RPMI-8226): 0.12 µM
GI50 ([2]; RXF 393, Renal Cancer, RXF 393): 0.46 µM
GI50 ([2]; Renal Cancer, U0-31): 0.07 µM
GI50 ([2]; SF-268, CNS Cancer, SF-268): 0.04 µM
GI50 ([2]; SF-295, CNS Cancer, SF-295): 0.18 µM
GI50 ([2]; SF-539, CNS Cancer, SF-539): 0.27 µM
GI50 ([2]; SK-MEL-2, Melanoma, SK-MEL-2): 9.44 µM
GI50 ([2]; SK-MEL-5, Melanoma, SK-MEL-5): 0.22 µM
GI50 ([2]; SK-MEL-28, Melanoma, SK-MEL-28): 1.37 µM
GI50 [2, 22]: 0.24 µM
GI50 ([2]; SN12C, Renal Cancer, SN12C): 0.2 µM
GI50 ([2]; SNB-19, CNS Cancer, SNB-19): 0.39 µM
GI50 ([2]; SNB-75, CNS Cancer, SNB-75): 0.21 µM
GI50 ([2]; SW-620, Colon Cancer, SW-620): 0.08 µM
GI50 ([2]; T47D, Breast Cancer, T-47D): 0.56 µM
GI50 ([2]; TK-10, Renal Cancer, TK-10): 2.12 µM
GI50 ([2]; U-251, CNS Cancer, U251): 0.12 µM
GI50 ([2]; UACC-62, Melanoma, UACC-62): 0.05 µM
GI50 ([2]; UACC-257, Melanoma, UACC-257): 0.48 µM
mean GI50 across NCI-60 panel (MGM) [2]: 280 nM
